Target: T1, ALK (baculovirus expressed human ALK kinase domain F1098-K1410) (Homo sapiens, UniProt Q9UM73)
T1 construct: human ALK kinase domain F1098-K1410; made in house
Assay: biochemical
Settings: 1 μM ATP, 4 μM poly-AEKY, 12 nM ALK, 2 hours at ambient temperature; read-out: ALK IC50
Outline: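 Baculovirus-expressed human ALK kinase domain (F1098-K1410) was run in a luciferase-coupled chemiluminescent format, with ATP near its KM. After 2 h at ambient temperature, remaining ATP was read by luciferase-luciferin luminescence. IC50 came from 10-point dose-response curves fitted to a four-parameter equation with Hill slope.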

T1 sequence (Q9UM73 1098-1410): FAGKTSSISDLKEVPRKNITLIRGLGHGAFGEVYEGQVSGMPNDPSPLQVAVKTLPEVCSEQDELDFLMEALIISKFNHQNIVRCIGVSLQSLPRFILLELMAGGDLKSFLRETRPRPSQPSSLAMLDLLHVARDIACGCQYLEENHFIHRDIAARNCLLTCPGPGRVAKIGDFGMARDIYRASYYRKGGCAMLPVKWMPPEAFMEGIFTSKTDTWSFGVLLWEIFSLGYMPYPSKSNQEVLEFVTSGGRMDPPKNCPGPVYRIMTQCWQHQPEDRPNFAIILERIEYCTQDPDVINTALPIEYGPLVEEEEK

Row | IC50 [nM] | Structure (SMILES)
1 | 50 to 500 | CC(C)(C)OC(=O)NCCCCCNC(=O)c1csc(CNC(=O)COc2ccc(OC(F)(F)F)cc2)n1 [Entry 123, 1,1-dimethylethyl [5-({[2-({[({4-[(trifluoromethyl)oxy]phenyl}oxy)acetyl]amino}methyl)-1,3-thiazol-4-yl]carbonyl}amino)pentyl]carbamate]
2 | 50 to 500 | CCN(CCNC(=O)c1csc(CNC(=O)COc2ccc(OC(F)(F)F)cc2)n1)c1cccc(C)c1 [Entry 124, N-{2-[ethyl(3-methylphenyl)amino]ethyl}-2-({[({4-[(trifluoromethyl)oxy]phenyl}oxy)acetyl]amino}methyl)-1,3-thiazole-4-carboxamide]
3 | 50 to 500 | COc1cccc(CNC(=O)c2csc(CNC(=O)COc3ccc(C(C)C)cc3)n2)c1OC [Entry 125, N-{[2,3-bis(methyloxy)phenyl]methyl}-2-{[({[4-(1-methylethyl)phenyl]oxy}acetyl)amino]methyl}-1,3-thiazole-4-carboxamide]
4 | 50 to 500 | O=C(COc1ccc(OC(F)(F)F)cc1)NCc1nc(C(=O)NCc2cc(F)cc(F)c2)cs1 [Entry 126, N-[(3,5-difluorophenyl)methyl]-2-({[({4-[(trifluoromethyl)oxy]phenyl}oxy)acetyl]amino}methyl)-1,3-thiazole-4-carboxamide]
5 | 50 to 500 | O=C(COc1ccc(OC(F)(F)F)cc1)NCc1nc(C(=O)NCc2cccc(F)c2)cs1 [Entry 127, N-[(3-fluorophenyl)methyl]-2-({[({4-[(trifluoromethyl)oxy]phenyl}oxy)acetyl]amino}methyl)-1,3-thiazole-4-carboxamide]
6 | 50 to 500 | C[C@@H](CNC(=O)c1coc(CNC(=O)COc2ccc(OC(F)(F)F)cc2)n1)c1ccccc1 [Entry 128, N-[(2R)-2-phenylpropyl]-2-({[({4-[(trifluoromethyl)oxy]phenyl}oxy)acetyl]amino}methyl)-1,3-oxazole-4-carboxamide]
7 | 50 to 500 | O=C(NCCc1ccccc1F)c1csc(CNC(=O)c2cccnc2Oc2ccc(Cl)cc2)n1 [Entry 129, 2-[(4-chlorophenyl)oxy]-N-{[4-({[2-(2-fluorophenyl)ethyl]amino}carbonyl)-1,3-thiazol-2-yl]methyl}pyridine-3-carboxamide]
8 | 50 to 500 | CN(C)Cc1ccc(CSCCNC(=O)c2csc(CNC(=O)COc3ccc(OC(F)(F)F)cc3)n2)o1 [Entry 130, N-{2-[({5-[(dimethylamino)methyl]furan-2-yl}methyl)thio]ethyl}-2-({[({4-[(trifluoromethyl)oxy]phenyl}oxy)acetyl]amino}methyl)-1,3-thiazole-4-carboxamide]
9 | 50 to 500 | O=C(COc1ccc(OC(F)(F)F)cc1)NC(Cc1ccccc1)c1nc(C(=O)NCCc2cccc(Cl)c2)cs1 (centres unmarked) [Entry 131, N-[2-(3-chlorophenyl)ethyl]-2-(2-phenyl-1-{[({4-[(trifluoromethyl)oxy]phenyl}oxy)acetyl]amino}ethyl)-1,3-thiazole-4-carboxamide]
10 | 50 to 500 | CCC(CC)CNC(=O)c1csc(CNC(=O)COc2ccc(OC(F)(F)F)cc2)n1 [Entry 132, N-(2-ethylbutyl)-2-({[({4-[(trifluoromethyl)oxy]phenyl}oxy)acetyl]amino}methyl)-1,3-thiazole-4-carboxamide]
11 | 50 to 500 | Cc1ccsc1CNC(=O)c1csc(CNC(=O)COc2ccc(OC(F)(F)F)cc2)n1 [Entry 133, N-[(3-methyl-2-thienyl)methyl]-2-({[({4-[(trifluoromethyl)oxy]phenyl}oxy)acetyl]amino}methyl)-1,3-thiazole-4-carboxamide]
12 | 50 to 500 | CCc1ccc(NC(=O)NCc2nc(C(=O)NCc3cccc(OC)c3OC)cs2)cc1 [Entry 134, N-{[2,3-bis(methyloxy)phenyl]methyl}-2-[({[(4-ethylphenyl)amino]carbonyl}amino)methyl]-1,3-thiazole-4-carboxamide]
13 | 50 to 500 | Cc1onc(-c2ccccc2)c1CNC(=O)c1csc(CNC(=O)COc2ccc(OC(F)(F)F)cc2)n1 [Entry 135, N-[(5-methyl-3-phenylisoxazol-4-yl)methyl]-2-({[({4-[(trifluoromethyl)oxy]phenyl}oxy)acetyl]amino}methyl)-1,3-thiazole-4-carboxamide]
14 | 50 to 500 | O=C(CNC(=O)c1ccc([N+](=O)[O-])cc1)NCc1nc(C(=O)NCCc2cccc(Cl)c2)cs1 [Entry 136, N-[2-(3-chlorophenyl)ethyl]-2-[({N-[(4-nitrophenyl)carbonyl]glycyl}amino)methyl]-1,3-thiazole-4-carboxamide]
15 | 50 to 500 | COc1ccc(OC)c(CCNC(=O)c2csc(CNC(=O)COc3ccc(OC(F)(F)F)cc3)n2)c1 [Entry 137, N-{2-[2,5-bis(methyloxy)phenyl]ethyl}-2-({[({4-[(trifluoromethyl)oxy]phenyl}oxy)acetyl]amino}methyl)-1,3-thiazole-4-carboxamide]
16 | 50 to 500 | CC(C)CCNC(=O)c1csc(CNC(=O)COc2ccc(OC(F)(F)F)cc2)n1 [Entry 138, N-(3-methylbutyl)-2-({[({4-[(trifluoromethyl)oxy]phenyl}oxy)acetyl]amino}methyl)-1,3-thiazole-4-carboxamide]

Row | IC50 [nM] | Structure (SMILES)
17 | 50 to 500 | O=C(COc1ccc(OC(F)(F)F)cc1)NCc1nc(C(=O)N2CCc3ccccc3C2)cs1 [Entry 139, N-{[4-(3,4-dihydroisoquinolin-2(1H)-ylcarbonyl)-1,3-thiazol-2-yl]methyl}-2-({4-[(trifluoromethyl)oxy]phenyl}oxy)acetamide]
18 | 50 to 500 | CC1CCC(NC(=O)c2csc(CNC(=O)COc3ccc(OC(F)(F)F)cc3)n2)CC1 (centres unmarked) [Entry 140, N-(4-methylcyclohexyl)-2-({[({4-[(trifluoromethyl)oxy]phenyl}oxy)acetyl]amino}methyl)-1,3-thiazole-4-carboxamide]
19 | 50 to 500 | O=C(NCCc1cccc(Cl)c1)c1csc(CNC(=O)c2cccnc2Oc2ccc(F)cc2)n1 [Entry 141, N-{[4-({[2-(3-chlorophenyl)ethyl]amino}carbonyl)-1,3-thiazol-2-yl]methyl}-2-[(4-fluorophenyl)oxy]pyridine-3-carboxamide]
20 | 50 to 500 | O=C(COc1ccc(OC(F)(F)F)cc1)NCc1nc(C(=O)Nc2ccc(C(=O)O)c(O)c2)cs1 [Entry 142, 2-hydroxy-4-({[2-({[({4-[(trifluoromethyl)oxy]phenyl}oxy)acetyl]amino}methyl)-1,3-thiazol-4-yl]carbonyl}amino)benzoic acid]
21 | 50 to 500 | O=C(COc1ccc(OC(F)(F)F)cc1)NCc1nc(C(=O)NCCc2ccccc2F)co1 [Entry 143, N-[2-(2-fluorophenyl)ethyl]-2-({[({4-[(trifluoromethyl)oxy]phenyl}oxy)acetyl]amino}methyl)-1,3-oxazole-4-carboxamide]
22 | 50 to 500 | COc1cccc(CNC(=O)c2csc(CNC(=O)c3cccnc3Oc3ccc(Cl)cc3)n2)c1OC [Entry 144, N-({4-[({[2,3-bis(methyloxy)phenyl]methyl}amino)carbonyl]-1,3-thiazol-2-yl}methyl)-2-[(4-chlorophenyl)oxy]pyridine-3-carboxamide]
23 | 50 to 500 | O=C(COc1ccc(OC(F)(F)F)cc1)NCc1nc(C(=O)NCCc2ccccc2)cs1 [Entry 145, N-(2-phenylethyl)-2-({[({4-[(trifluoromethyl)oxy]phenyl}oxy)acetyl]amino}methyl)-1,3-thiazole-4-carboxamide]
24 | 50 to 500 | CCSCCNC(=O)c1csc(CNC(=O)COc2ccc(OC(F)(F)F)cc2)n1 [Entry 146, N-[2-(ethylthio)ethyl]-2-({[({4-[(trifluoromethyl)oxy]phenyl}oxy)acetyl]amino}methyl)-1,3-thiazole-4-carboxamide]
25 | 50 to 500 | C#CC(CC)(CC)NC(=O)c1csc(CNC(=O)COc2ccc(OC(F)(F)F)cc2)n1 [Entry 147, N-(1,1-diethylprop-2-yn-1-yl)-2-({[({4-[(trifluoromethyl)oxy]phenyl}oxy)acetyl]amino}methyl)-1,3-thiazole-4-carboxamide]
26 | 50 to 500 | O=C(COc1ccc(OC(F)(F)F)cc1)NCc1nc(C(=O)NCCc2cccc(F)c2)co1 [Entry 148, N-[2-(3-fluorophenyl)ethyl]-2-({[({4-[(trifluoromethyl)oxy]phenyl}oxy)acetyl]amino}methyl)-1,3-oxazole-4-carboxamide]
27 | 50 to 500 | CSCCCNC(=O)c1csc(CNC(=O)COc2ccc(OC(F)(F)F)cc2)n1 [Entry 149, N-[3-(methylthio)propyl]-2-({[({4-[(trifluoromethyl)oxy]phenyl}oxy)acetyl]amino}methyl)-1,3-thiazole-4-carboxamide]
28 | 50 to 500 | Cc1cc(Cl)ccc1CNC(=O)c1csc(CNC(=O)COc2ccc(OC(F)(F)F)cc2)n1 [Entry 150, N-[(4-chloro-2-methylphenyl)methyl]-2-({[({4-[(trifluoromethyl)oxy]phenyl}oxy)acetyl]amino}methyl)-1,3-thiazole-4-carboxamide]
29 | 50 to 500 | Cc1cccc(CCNC(=O)c2coc(CNC(=O)COc3ccc(OC(F)(F)F)cc3)n2)c1 [Entry 151, N-[2-(3-methylphenyl)ethyl]-2-({[({4-[(trifluoromethyl)oxy]phenyl}oxy)acetyl]amino}methyl)-1,3-oxazole-4-carboxamide]
30 | 50 to 500 | CC(CCc1ccccc1)NC(=O)c1csc(CNC(=O)COc2ccc(OC(F)(F)F)cc2)n1 (centres unmarked) [Entry 152, N-(1-methyl-3-phenylpropyl)-2-({[({4-[(trifluoromethyl)oxy]phenyl}oxy)acetyl]amino}methyl)-1,3-thiazole-4-carboxamide]
31 | 50 to 500 | CC(C)[C@H](C)NC(=O)c1csc(CNC(=O)COc2ccc(OC(F)(F)F)cc2)n1 [Entry 153, N-[(1S)-1,2-dimethylpropyl]-2-({[({4-[(trifluoromethyl)oxy]phenyl}oxy)acetyl]amino}methyl)-1,3-thiazole-4-carboxamide]
32 | 50 to 500 | COc1cccc(CNC(=O)c2csc(CNC(=O)COc3ccc(OC(F)(F)F)cc3)n2)c1 [Entry 154, N-{[3-(methyloxy)phenyl]methyl}-2-({[({4-[(trifluoromethyl)oxy]phenyl}oxy)acetyl]amino}methyl)-1,3-thiazole-4-carboxamide]

From US7973061B2, “Anaplastic lymphoma kinase modulators and methods of use” (Exelixis, Inc., priority 2004, dated 2011)
